Test results as given in article PMC3553014, “Albumin Stimulates the Activity of the Human UDP-Glucuronosyltransferases 1A7, 1A8, 1A10, 2A1 and 2B15, but the Effects Are Enzyme and Substrate Dependent” (PLoS ONE, 2013).
Values joined by “and” are separate entries in the source; they are usually repeats but may differ in a detail not shown here. Identical values can stand only once. Like-named read-outs stand apart in the source and are kept apart here.

Tests used:
UGT2B17 = biological target: T1, UGT2B17 (Homo sapiens, UniProt O75795)
T1 sequence (O75795 24-530): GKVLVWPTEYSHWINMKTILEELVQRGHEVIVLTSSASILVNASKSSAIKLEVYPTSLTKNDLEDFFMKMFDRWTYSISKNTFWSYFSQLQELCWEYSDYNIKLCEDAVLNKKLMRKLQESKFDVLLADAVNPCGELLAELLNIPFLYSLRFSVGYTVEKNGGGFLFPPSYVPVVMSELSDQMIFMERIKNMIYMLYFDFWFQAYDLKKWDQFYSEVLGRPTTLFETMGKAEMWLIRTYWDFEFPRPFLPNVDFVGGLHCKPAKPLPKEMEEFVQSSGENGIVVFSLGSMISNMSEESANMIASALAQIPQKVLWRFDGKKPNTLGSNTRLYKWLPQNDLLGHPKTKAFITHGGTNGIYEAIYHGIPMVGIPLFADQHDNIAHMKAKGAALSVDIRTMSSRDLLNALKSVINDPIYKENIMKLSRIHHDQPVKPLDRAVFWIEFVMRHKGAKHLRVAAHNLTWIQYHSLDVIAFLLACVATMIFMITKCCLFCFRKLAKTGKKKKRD
Method: (§1) Recombinant human UGTs 1A1, 1A6, 1A7, 1A8, 1A10, 2A1, 2B4, 2B7 and 2B17 were expressed as His-tagged proteins in baculovirus-infected insect cells as described previously [14]. […] Protein concentrations were determined by the BCA method (Pierce Biotechnology, Rockford, IL, USA).
(§2) The protein concentrations and incubation times for the enzyme kinetic assays were selected based on preliminary assays in order to ensure that the product formation was within the linear range with respect to both protein concentration and time, and that the substrate consumption during the reaction was less than 10%. The initial velocity measurements were performed in either duplicates or triplicates and they are presented as the average values and S.E.
(§3) The glucuronidation rates by recombinant enzymes are reported as “expression normalized” values. The relative expression level of each recombinant UGT that was produced in our laboratory was determined using immunoblotting, as previously described [14], [19]. The dot blot assays were performed in triplicate and the average value was used for normalization. […] The “expression normalized” glucuronidation rates were calculated by dividing the measured glucuronidation rates with relative expression level of the each given recombinant UGT.
(§4) In assays containing BSA, the total concentrations of substrate were corrected according to the measured drug binding to BSA, under the specific conditions of each glucuronidation assay. The statistical significance of the difference in enzyme kinetics parameters upon BSA addition was tested with extra sum-of-squares F-test (included in the GraphPad software, [20]. The initial glucuronidation rates were fitted to the following equations:

UGT1A1 = biological target: T2, UGT1A1 (Homo sapiens, UniProt P22309); assay: UGT1A1-catalyzed glucuronidation, enzyme kinetics
T2 sequence (P22309 26-533): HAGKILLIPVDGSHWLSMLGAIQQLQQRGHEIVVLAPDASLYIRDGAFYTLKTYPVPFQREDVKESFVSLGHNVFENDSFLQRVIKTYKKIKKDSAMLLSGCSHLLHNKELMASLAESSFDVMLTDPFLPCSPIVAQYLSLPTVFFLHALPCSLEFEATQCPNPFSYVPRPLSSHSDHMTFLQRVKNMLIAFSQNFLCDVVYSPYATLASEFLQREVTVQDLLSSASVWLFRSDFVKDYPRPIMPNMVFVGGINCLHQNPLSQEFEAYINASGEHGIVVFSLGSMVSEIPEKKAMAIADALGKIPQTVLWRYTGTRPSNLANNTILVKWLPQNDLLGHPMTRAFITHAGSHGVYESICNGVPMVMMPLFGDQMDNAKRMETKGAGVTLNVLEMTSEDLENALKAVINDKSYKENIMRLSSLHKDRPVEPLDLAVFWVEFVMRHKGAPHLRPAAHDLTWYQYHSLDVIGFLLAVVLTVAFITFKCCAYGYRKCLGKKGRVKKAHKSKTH
Method: as §1, §2, §3, §4

UGT1A8 = biological target: T3, UGT1A8 (Homo sapiens, UniProt Q9HAW9); assay: UGT1A8-catalyzed glucuronidation, enzyme kinetics
T3 sequence (Q9HAW9 26-530): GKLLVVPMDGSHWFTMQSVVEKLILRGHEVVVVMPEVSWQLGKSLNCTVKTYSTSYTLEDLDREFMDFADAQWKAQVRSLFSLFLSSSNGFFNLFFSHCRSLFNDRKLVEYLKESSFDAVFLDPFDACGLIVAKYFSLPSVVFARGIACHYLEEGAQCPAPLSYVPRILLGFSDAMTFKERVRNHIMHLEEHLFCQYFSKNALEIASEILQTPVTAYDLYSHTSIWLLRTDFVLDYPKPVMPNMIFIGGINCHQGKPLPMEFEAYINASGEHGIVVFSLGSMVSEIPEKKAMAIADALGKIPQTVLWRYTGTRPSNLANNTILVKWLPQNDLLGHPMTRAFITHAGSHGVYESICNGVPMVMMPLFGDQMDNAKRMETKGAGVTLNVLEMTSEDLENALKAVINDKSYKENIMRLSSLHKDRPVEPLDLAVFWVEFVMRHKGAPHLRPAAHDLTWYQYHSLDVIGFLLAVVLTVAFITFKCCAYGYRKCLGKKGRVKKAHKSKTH
Method: as §1, §2, §3
In assays containing BSA, the total concentrations of substrate were corrected according to the measured drug binding to BSA, under the specific conditions of each glucuronidation assay.

UGT1A6 = biological target: T4, UGT1A6 (Homo sapiens, UniProt P19224); assay: UGT1A6-catalyzed glucuronidation, enzyme kinetics
T4 sequence (P19224 27-532): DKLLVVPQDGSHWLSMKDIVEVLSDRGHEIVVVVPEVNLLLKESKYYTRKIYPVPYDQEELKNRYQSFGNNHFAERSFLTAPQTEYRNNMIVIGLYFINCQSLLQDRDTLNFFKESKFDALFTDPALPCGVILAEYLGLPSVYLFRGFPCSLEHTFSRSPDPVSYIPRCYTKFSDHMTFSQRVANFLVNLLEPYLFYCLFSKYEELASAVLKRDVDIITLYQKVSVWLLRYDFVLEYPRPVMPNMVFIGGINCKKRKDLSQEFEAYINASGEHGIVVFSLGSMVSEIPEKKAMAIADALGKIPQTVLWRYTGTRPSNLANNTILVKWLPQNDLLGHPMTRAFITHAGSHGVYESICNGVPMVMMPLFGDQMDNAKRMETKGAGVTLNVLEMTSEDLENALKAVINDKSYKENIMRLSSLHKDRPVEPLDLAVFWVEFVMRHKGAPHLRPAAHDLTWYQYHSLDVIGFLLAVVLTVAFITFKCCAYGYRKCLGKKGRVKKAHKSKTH
Method: as §1, §2, §3, §4

BSA [1] = biological target: T5, BSA (Bos taurus, UniProt P02769); parameters: purchased Sigma-Aldrich (St. Louis, MO, USA); conditions: 2% BSA; 25 (Walsky et al. 2012); cited from earlier work
BSA [2] = biological target: T5, BSA; assay: in vitro; conditions: bovine
[3] = Drug binding to control insect cell membranes by RED; conditions: 0.2 mg/mL total protein in the membrane
[4] = substrate: Oc1cccc2ccccc12; assay: purified protein, by the assay type; conditions: pH 7.4
[5] = substrate: Cc1cc(=O)oc2cc(O)ccc12; assay: purified protein, by the assay type; conditions: pH 7.4
not read [6] = substrate: Cc1cc(=O)oc2cc(O)ccc12; assay: not read; conditions: other: No BSA, pH 7.4
Method: as §1, §2, §3, §4

not read [7] = substrate: Oc1ccc2cc[nH]c2c1; assay: not read; conditions: other: No BSA, pH 7.4
Method: as §1, §2, §3, §4

T5 sequence (P02769 25-607): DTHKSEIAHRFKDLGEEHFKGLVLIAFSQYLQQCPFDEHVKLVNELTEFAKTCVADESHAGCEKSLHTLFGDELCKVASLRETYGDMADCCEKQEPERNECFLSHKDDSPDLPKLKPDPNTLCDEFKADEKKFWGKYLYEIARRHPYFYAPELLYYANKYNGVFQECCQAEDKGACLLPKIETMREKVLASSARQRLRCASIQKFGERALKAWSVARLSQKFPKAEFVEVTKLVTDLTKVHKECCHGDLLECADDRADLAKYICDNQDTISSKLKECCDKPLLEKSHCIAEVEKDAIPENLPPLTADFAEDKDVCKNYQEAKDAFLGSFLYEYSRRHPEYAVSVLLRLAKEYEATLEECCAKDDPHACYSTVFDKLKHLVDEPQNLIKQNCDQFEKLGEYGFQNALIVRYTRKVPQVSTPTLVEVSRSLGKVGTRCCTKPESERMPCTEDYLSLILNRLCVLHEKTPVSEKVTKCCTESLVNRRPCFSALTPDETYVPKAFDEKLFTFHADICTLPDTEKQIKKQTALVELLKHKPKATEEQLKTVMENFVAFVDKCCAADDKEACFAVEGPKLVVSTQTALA

Question: With Oc1cccc2ccccc12 [1-Naphthol, 1-naphthol] as the molecule, how does the “K m or S 50 ± S.E.” value (UGT2B17) read?
Answer: 540±26(485–595) µM and 484±27(427–541) µM

Question: What about the “V max ± S.E.” value (UGT2B17) of the same molecule?
Answer: 0.28±0.01(0.26–0.31) nmol•min^–1•mg^–1

Question: What about the “K m or S 50 ± S.E.” value (UGT1A1) of the same molecule?
Answer: 101±11(78–123) µM and 81.6±5.1(71.0–92.1) µM

Question: What about the “V max ± S.E.” value (UGT1A1) of the same molecule?
Answer: 0.11±0.01(0.10–0.13) nmol•min^–1•mg^–1

Question: What about the “K m or S 50 ± S.E.” value (UGT1A8) of the same molecule?
Answer: 91.6±6.6(78.0–105.3) µM and 105±16(73–137) µM

Question: What about the “V max ± S.E.” value (UGT1A8) of the same molecule?
Answer: 2.5±0.1(2.3–2.7) nmol•min^–1•mg^–1

Question: What about the “K m or S 50 ± S.E.” value (UGT1A6; 0.1% BSA, substrate concentration corrected for binding to BSA) of the same molecule?
Answer: 5.25±0.23 ^***(4.78–5.72) µM

Question: And the “K m or S 50 ± S.E.” value (UGT1A6; No BSA)?
Answer: 8.07±0.48(7.08–9.06) µM

Question: And the “V max ± S.E.” value (UGT1A6; No BSA, expression level-normalized)?
Answer: 6.7±0.1(6.47–6.94) nmol•min^–1•mg^–1

Question: Which “V max ± S.E.” value (UGT2B17) does the source give for C[C@]12CC[C@@H]3c4ccc(O)cc4CC[C@H]3[C@@H]1CC[C@@H]2O [17β-Estradiol, 17β-estradiol] here?
Answer: 0.013±0.0002(0.0125–0.0132) nmol•min^–1•mg^–1

Question: And the “K m or S 50 ± S.E.” value (UGT1A1)?
Answer: 7.84±1.62(4.48–11.21) µM

Question: And the “K m or S 50 ± S.E.” value (UGT1A1; 0.1% BSA, substrate concentration corrected for binding to BSA, estradiols: 3-glucuronide formation)?
Answer: 9.06±1.14(6.70–11.42) µM

Question: What about the “V max ± S.E.” value (UGT1A8) of the same molecule?
Answer: 0.020±0.0003(0.019–0.021) nmol•min^–1•mg^–1

Question: And the “K m or S 50 ± S.E.” value (UGT1A8; 0.1% BSA, substrate concentration corrected for binding to BSA, 17β-estradiol: 3-glucuronide formation)?
Answer: 4.70±0.62 ^**(3.42–5.99) µM

Question: And the “f u (unbound fraction)” value (BSA [1])?
Answer: 0.04

Question: What about the fraction unbound at 8 h (BSA [2]) of the same molecule?
Answer: 0.48 ± 0.01

Question: And the “binding to control insect cell membrane” value [3]?
Answer: negligible

B1: UGT2B17 (Homo sapiens) (protein)
chain: T1 sequence (O75795 24-530)
Question: For B1, which K0.5 [4] is on record?
Answer: 540±26(485–595) uM

Question: And the K0.5 [5]?
Answer: 377±42(291–463) uM

Question: And the Vmax [5]?
Answer: 5e-05 µmol/min/mg

B2: UGT2A1 (Homo sapiens) (protein)
chain: GNVLIWPMEGSHWLNVKIIIDELIKKEHNVTVLVASGALFITPTSNPSLTFEIYKVPFGKERIEGVIKDFVLTWLENRPSPSTIWRFYQEMAKVIKDFHMVSQEICDGVLKNQQLMAKLKKSKFEVLVSDPVFPCGDIVALKLGIPFMYSLRFSPASTVEKHCGKVPYPPSYVPAVLSELTDQMSFTDRIRNFISYHLQDYMFETLWKSWDSYYSKALGGLLLCCPGWSAVADLGSLQPLLPGFKRFSRLSLHCSWDYRLPAGRPTTLCETMGKAEIWLIRTYWDFEFPRPYLPNFEFVGGLHCKPAKPLPKVLWRYKGKKPATLGNNTQLFDWIPQNDLLGHPKTKAFITHGGTNGIYEAIYHGVPMVGVPMFADQPDNIAHMKAKGAAVEVNLNTMTSVDLLSALRTVINEPSYKENAMRLSRIHHDQPVKPLDRAVFWIEFVMRHKGAKHLRVAAHDLTWFQYHSLDVIGFLLVCVTTAIFLVIQCCLFSCQKFGKIGKKKKRE
Question: What does the source list for B2?
Answer: K0.5 (not read [6]): 48.1±4.8(38.2–57.9) µM; Vmax (not read [6]): 0.0021 µmol/min/mg; K0.5 (not read [7]): 1474±121(1223–1724) µM; Vmax (not read [7]): 0.00079 µmol/min/mg

B3: UGT2B4 (Homo sapiens) (protein)
chain: GKVLVWPTEFSHWMNIKTILDELVQRGHEVTVLASSASISFDPNSPSTLKFEVYPVSLTKTEFEDIIKQLVKRWAELPKDTFWSYFSQVQEIMWTFNDILRKFCKDIVSNKKLMKKLQESRFDVVLADAVFPFGELLAELLKIPFVYSLRFSPGYAIEKHSGGLLFPPSYVPVVMSELSDQMTFIERVKNMIYVLYFEFWFQIFDMKKWDQFYSEVLGRPTTLSETMAKADIWLIRNYWDFQFPHPLLPNVEFVGGLHCKPAKPLPKEMEEFVQSSGENGVVVFSLGSMVSNTSEERANVIASALAKIPQKVLWRFDGNKPDTLGLNTRLYKWIPQNDLLGHPKTRAFITHGGANGIYEAIYHGIPMVGVPLFADQPDNIAHMKAKGAAVSLDFHTMSSTDLLNALKTVINDPLYKENAMKLSRIHHDQPVKPLDRAVFWIEFVMRHKGAKHLRVAAHDLTWFQYHSLDVTGFLLACVATVIFIITKCLFCVWKFVRTGKKGKRD
Question: With B3 as the molecule, how does the K0.5 [4] read?
Answer: 210±12(186–235) uM

Question: What about the K0.5 [5] of the same molecule?
Answer: 298±43(210–387) uM
